Experimental data: US8466104B2, “Therapeutically active alpha MSH analogues” (AbbVie Inc., priority 2005, dated 2013)

How the values were obtained:
[1] = system: LPS induced TNF-α production by human leucocytes (PBMC); assay: Inhibition of LPS induced TNF-a production by human leucocytes in vitro (experimental setup 1); assay type: cell-based; conditions: for dose dependent reduction of LPS induced TNF-a accumulation / inhibitory effect on TNF-a accumulation compared to native a-MSH / LPS induced TNF-a accumulation, % of the maximal response (LPS-Vehicle): human leucocyte suspension; for LPS induced TNF-a accumulation, % of the maximal response (LPS-Vehicle): 10 ng LPS/mL, 18 hours, maximal effect (10^−7 M); for concentration at which the maximal inhibitory effect on LPS-induced TNF-α production was achieved: human lymphocyte suspension
Protocol: Inhibition of LPS Induced TNF-a Production by Human Leucocytes In Vitro
20 mL human blood is collected in vacutainer tubes containing EDTA. PBMC is isolated using Ficoll-Paque Plus as in Amersham's Instruction 71-7167-00 AD, 2002-06. PBMC is counted using Tryphan Blue Solution (Sigma) and incubated in RPMI 1640, (Applichem), supplemented with 10 mM Hepes (Sigma), 2 mM L-glutamin (Sigma), 0.1% BSA (Sigma) and 50U/50 μg/mL Penicillin/Streptomycin (Sigma) in the concentration 5×10^5 cells/mL. The isolated PBMC is incubated in a humidified 5% CO2, 95% air atmosphere, at 37° C., in 24 well flat-bottomed plates (Corning Incorporated) with medium, 10 ng LPS/mL (Sigma), and test compound. After 18 hours the samples are centrifuged, and TNF-α in the supernatants is measured using Tumour Necrosis Factor Alpha [(h)TNF-α] from Human Biotrak ELISA System (Amersham).
The samples are incubated as following per donor: • PBMC's in RPMI (Time Control) • PBMC's with 10 ng LPS/mL (Vehicle) • PBMC's, 10 ng LPS/mL, 10^−17M a-MSH or a-MSH analogue • PBMC's, 10 ng LPS/mL, 10^−15M a-MSH or a-MSH analogue • PBMC's, 10 ng LPS/mL, 10^−13M a-MSH or a-MSH analogue • PBMC's, 10 ng LPS/mL, 10^−11M a-MSH or a-MSH analogue • PBMC's, 10 ng LPS/mL, 10^−9M a-MSH or a-MSH analogue • PBMC's, 10 ng LPS/mL, 10^−7M a-MSH or a-MSH analogue
All samples are diluted from an initial stock solution between 1.4×10^−4M and 1.8×10^−3M. All solutions are handled in BSA coated vials in order to protect against binding of the compound to the surface of the vials.
Data is presented as mean±SE. The effect of test compounds on LPS induced TNF-a liberation is expressed as percentage of the TNF-a accumulation in the LPS-vehicle group. All comparisons are analysed with Student's unpaired t-test. Differences are considered significant at probability levels (p) of 0.05.

[2] = system: myocardial infarction induced by LAD occlusion in rats; assay: Inhibition of myocardial infarction size induced by 60 minutes occlusion of the left anterior descending coronary artery in rats (experimental setup 5); assay type: in vivo, rat; conditions: for dose at which the maximal inhibitory effect on infarction size is achieved: 200 and 1000 μg/kg tested; for effect on myocardial infarction size (in contrast to / compared to a-MSH) / myocardial infarction size, necrotic area as % of area of risk: 3 hours after LAD-reperfusion
Protocol: Inhibition of Myocardial Infarction Size, Induced by 60 Minutes Occlusion of the Left Anterior Descending Coronary Artery in Rats.
Barrier-bred and specific pathogen-free female Wistar rats (250 g) are obtained from Charles River, Hannover, Germany. The animals are housed in a temperature (22-24° C.) and moisture (40-70%) controlled room with a 12-hour light-dark cycle (light on from 6:00 A.M. to 6:00 P.M.). All animals are given free access to tap water and a pelleted rat diet containing approximately 140 mmol/kg of sodium, 275 mmol/kg potassium and 23% protein (Altromin catalogue no. 1310, Altromin International, Lage, Germany). […] One week later the Rats are anaesthetized in an inhalation chamber with 4% isoflurane in O2. After insertion of an endotracheal tube the animal is artificially ventilated with 1.0% isoflurane in O2 using af Hugo Basile Rodent ventilator. Tidal volume is 8-10 ml/kg b.w. and respiratory rate 75 […], which maintains arterial pH between 7.35 and 7.45. During surgery the animal is placed on a heated table that maintains rectal temperature at 37-38° C. Standard ECG (second lead) is measured using a Hugo Sachs ECG Coupler and collected on line at 4,000 Hz in PowerLab. After parasternal thoracotomy and opening of the pericardium the left anterior descending coronary artery (LAD) is localized visually. An atraumatic 6-0 silk suture with an occluder that allows reopening of the ligature is placed around the LAD between the pulmonary trunk and the lower right end of the left auricle. After 10 minutes the left anterior descending coronary artery (LAD) is occluded. Successful occluding is confirmed by alterations in ECG (ST-segment elevation and increase in R-wave amplitude) and by fall in MAP. Reperfusion is made after 60 minutes by opening the occluder. Control rats are sham-operated.
The rats are subjected to one of the following i.v treatments: • Vehicle: 0.5 ml 150 mM NaCl. • a-MSH: 200 μg or 1000 μg a-melanocyte stimulating hormone/kg b.w. in 0.5 ml 150 mM NaCl.
Test compound 200 μg or 1000 μg test compound/kg b.w. in 0.5 ml 150 mM NaCl.
Treatment is given 5 minutes prior to reperfusion.
The rats are kept anaesthetized after the ischemia/reperfusion and re-occluding of the LAD is performed after three hours reperfusion. During this period ECG and MAP are measured continuously. Then Evans Blue dye (1 ml; 2% w/v) is administered i.v. to determine the size of the ischemic area. The heart is removed and cut into horizontal slices to determine the size of the ischemic area and to separate the ischemic myocardium from the non-ischemic myocardium. The ischemic area is isolated and incubated in a 0.5% triphenyltetrazolium chloride solution for 10 minutes at 37° C. The size of the necrotic tissue is then measured by used of a computerized image program. An additional setup of animals are treated with buprenorphine post-surgical and returned to there cages for measurement of left ventricular end diastolic pressure (LVEDP) two weeks later in order to evaluate the effect of the pharmacological treatment on the development of congestive heart failure. LVEDP is measured using a 2F microtip catheters inserted into the left ventricle via the right carotid artery. Isoflurane concentration is adjusted to stabilize mean arterial pressure (MAP) at 85-90 mmHg.
Data are presented as mean±S.E. Within group comparisons are analysed with Student's paired t test. Between group comparisons are performed by one way analysis of variance followed by Fishers Least Significant Difference test. Differences are considered significant at the 0.05 level.

[3] = 14 days after 60 minutes occlusion of LAD

| Substance | dose dependent reduction of LPS induced TNF-a accumulation [1] | inhibitory effect on TNF-a accumulation compared to native a-MSH [1] | LPS induced TNF-a accumulation, % of the maximal response (LPS-Vehicle) [1] | concentration at which the maximal inhibitory effect on LPS-induced TNF-α production was achieved [1] | reduction in infarction size compared to Vehicle treated rats ([2]; 200 μg/kg body weight) | dose at which the maximal inhibitory effect on infarction size is achieved [2] | effect on myocardial infarction size (in contrast to / compared to a-MSH) [2] | myocardial infarction size, necrotic area as % of area of risk ([2]; 200 μg/kg body weight iv) | effect on myocardial infarction size (in contrast to / compared to a-MSH) ([2]; listed as SEQ ID NO: 5) | effect on LVEDP / post-infarctional congestive heart failure [2, 3] | effect on myocardial infarction size (in contrast to / compared to a-MSH) ([2]; listed as SEQ ID NO: 9) | reduction in infarction size compared to Vehicle treated rats ([2]; 1000 μg/kg body weight) | myocardial infarction size, necrotic area as % of area of risk ([2]; 1000 μg/kg body weight iv) | effect on myocardial infarction size (in contrast to / compared to a-MSH) ([2]; listed as SEQ ID NO: 1) | left ventricular end diastolic pressure (LVEDP) ([2]; 14 days after 60 minutes occlusion of LAD, 200 μg/kg bw) | concentration at which the maximal inhibitory effect on LPS-induced TNF-α production was achieved ([1]; listed as α-MSH) |
| --- | --- | --- | --- | --- | --- | --- | --- | --- | --- | --- | --- | --- | --- | --- | --- | --- |
| Ac-Lys-Lys-Lys-Lys-Lys-Lys-Ser-Tyr-Ser-Nle-Glu-His-(D-Phe)-Arg-Trp-Gly-Lys-Pro-Val-NH2 (KKKKKKSYSXEHFRWGKPV; N-acetyl, Nle, D-Phe, C-amide) [a-MSH analogue #2] | dose dependently reduce | markedly more pronounced | 42±111% | 10^−7 M | ~27% | 200 μg/kg body weight | reduces the myocardial infarction size | 37.4±5.1 % of area of risk | reduced the infarction size to a higher degree | marked reduction in LVEDP |  |  |  |  |  |  |
| Ac-Lys-Lys-Lys-Lys-Lys-Lys-Ser-Tyr-Ser-Nle-Glu-His-D-Nal-Arg-Trp-Gly-Lys-Pro-Val-NH2 (KKKKKKSYSXEHXRWGKPV; not fully specified; N-acetyl, Nle, D-Nal, C-amide) [a-MSH analogue #3] | dose dependently reduce | markedly more pronounced | 53±13% |  | ~24% | 200 μg/kg body weight | reduces the myocardial infarction size | 39.0±3.4 % of area of risk |  | marked reduction in LVEDP | reduced the infarction size to a higher degree |  |  |  |  |  |
| Ac-Lys-Lys-Lys-Lys-Lys-Lys-Ser-Tyr-Ser-Met-Glu-His-Phe-Arg-Trp-Gly-Lys-Pro-Val-NH2 (Ac-KKKKKKSYSMEHFRWGKPV-NH2) [a-MSH analogue #1] | dose dependently reduce | markedly more pronounced | 47±2% | 10^−7 M | ~30% | 200 μg/kg body weight | reduces the myocardial infarction size | 35.7±5.6 % of area of risk |  | marked reduction in LVEDP |  | ~30% | 35.0±4.4 % of area of risk | reduced the infarction size to a higher degree | 10.4±2.9 mmHg |  |
| Ser-Tyr-Ser-Met-Glu-His-Phe-Arg-Trp-Gly-Lys-Pro-Val [a-MSH, reference compound] | dose dependently reduce |  | 73±9% |  |  |  |  |  |  |  |  |  |  |  |  | 10^−7 M |
